# Reference: patent US12427134B2, “Methods of reducing the risk of cardiovascular events in a subject with atrial fibrillation and/or atrial flutter” (priority 2019, dated 2025)
# Test system: hypertriglyceridemic patients with cardiovascular disease or at high risk for cardiovascular disease
# Test: REDUCE-IT: subgroup analyses of the primary and key secondary endpoints
# Assay type: in vivo, human
# Details: for Primary endpoint, patients with event (%) / Time to primary endpoint, HR (95% CI) AMR101/Placebo: ITT
# Experimental: Exploratory Subgroup Analyses: Analyses of the effects that patients off study drug and withdrawn from study have on the primary endpoint were performed. Subgroup analyses of the primary and key secondary endpoints were performed as described for the primary endpoint. For each subgroup, Kaplan-Meier estimates, the log-rank test stratified by stratification factors used at randomization (except where the subgroup was a stratification factor), and HRs and CIs from the Cox proportional hazards model as specified for the primary efficacy endpoint, were summarized by treatment group. Demographic, disease, treatment, and baseline lipid and lipoproteins parameters were explored.
# Demographic parameters included: Gender; age at baseline (<65 years and ≥65 years); race (white and nonwhite, or any other subset with at least 10% of the total number of patients); geographical region (Westernized, Eastern European, and Asia Pacific countries); and baseline ezetimibe use (yes/no).
# Disease parameters included: CV risk category; the presence/absence of diabetes at baseline; and renal dysfunction at baseline (estimated glomerular filtration rate [eGFR]<60 mL/min/1.73 m^2) using the Chronic Kidney Disease Epidemiology Collaboration (CKD-EPI) equation as follows: eGFR=141×min(Scr/κ,1)^α×max(Scr/κ,1)^[…]^Age×1.018 [if female]×1.159 [if black]
# Treatment Parameters included: Statin intensity at baseline (statin type and regimen); and statin intensity categories as defined in ACC/AHA Cholesterol Guidelines (Stone 2013) and patient's 10-year CV Risk Score (Goff 2013).
# Baseline Lipid and Lipoprotein Parameter included: LDL-C (by tertile); HDL-C (by tertile, and tertile by gender); TG (by tertile, and tertile by gender); RLP-C (by tertile); TG ≥150 mg/dL and TG <150 mg/dL; TG ≥200 mg/dL and TG <200 mg/dL; TG ≥median, TG <median; combined highest tertile for TG and lowest tertile for HDL-C; gender-specific highest tertile for TG and lowest tertile for HDL-C; TG ≥200 mg/dL with HDL-C ≤35 mg/dL; hsCRP (≤3 mg/L and >3 mg/L) and by gender; hsCRP (≤2 mg/L and >2 mg/L) and by gender; Apo B (by tertile); non-HDL-C (by tertile); baseline hemoglobin A1c (Hb1c) value (<6.5%, ≥6.5%); baseline PAD; and baseline TG levels ≥150 mg/dL with high-density lipoprotein cholesterol (HDL-C) levels ≤40 mg/dL for males and ≤50 mg/dL for females.
# A Cox proportional hazard (PH) model as mentioned above but additionally with baseline TG as a covariate were fitted to the data at each interim. Diagnostic plots for the PH assumption were evaluated. The consistency of the treatment effects in subgroups was assessed for the primary and key secondary efficacy endpoints. For each subgroup variable, a Cox PH model with terms for treatment, stratification factors (with the exception of those subgroup variables related to the stratification factors, i.e., CV risk category), subgroup, and treatment-by-subgroup interaction were performed. The main treatment effect was tested with this model. P-values for testing the interaction terms <0.15 were considered significant. Results were presented in a Forest plot.
# Subgroup analyses of the primary and key secondary endpoints were performed as described for the primary endpoint. For each subgroup, Kaplan-Meier estimates, the log-rank test stratified by stratification factors used at randomization (except where the subgroup was a stratification factor), and HRs and CIs from the Cox proportional hazards model as specified for the primary efficacy endpoint, were summarized by treatment group. All subgroup analyses were conducted for the ITT, mITT and PP populations.
# Of note regarding the following subgroup analyses, per study design, subgroup analyses are underpowered to detect statistically significant results within each individual subgroup, particularly when a subgroup represents less than 50% of the enrolled population, and when a subgroup has low event rates. […]
# [1] = Overall (Males and Females), TG Lowest Tertile (≥81.25 to ≤190 mg/dL)
# [2] = Overall (Males and Females), TG Middle Tertile (>190 to ≤250 mg/dL)
# [3] = RLP-C (Derived) Highest Tertile (>34.30 to ≤105.86 mg/dL)
# [4] = RLP-C (Derived) Lowest Tertile (≥11.89 to ≤28.09 mg/dL)
# [5] = RLP-C (Derived) Middle Tertile (>28.09 to ≤34.30 mg/dL)
# [6] = TG Lower Half (≥81.25 and ≤216 mg/dL)
# [7] = TG Upper Half (>216 and ≤1401 mg/dL)
# [8] = above or at the median baseline TG (>216 mg/dL)
# [9] = baseline TG <150 mg/dL and HDL-C >40 mg/dL (males) or >50 mg/dL (females)
# [10] = baseline TG ≥150 mg/dL and HDL-C ≤40 mg/dL (males) or ≤50 mg/dL (females)
# [11] = below the median baseline TG (≥81.25 and ≤216 mg/dL)
# [12] = females, middle tertile baseline TG (>186 to ≤241.5 mg/dL)
# [13] = highest tertile baseline HDL-C (>43.5 to ≤107.5 mg/dL)
# [14] = highest tertile baseline RLP-C (>34.30 to ≤105.86 mg/dL)
# [15] = highest tertile baseline TG (>250 to ≤401 mg/dL)
# [16] = highest tertile baseline TG and lowest tertile baseline HDL-C
# [17] = history of peripheral artery disease
# [18] = lowest tertile baseline HDL-C (≥17 to ≤36.5 mg/dL)
# [19] = lowest tertile baseline RLP-C (≥11.89 to ≤28.09 mg/dL)
# [20] = lowest tertile baseline TG (≥81.25 to ≤190 mg/dL)
# [21] = middle tertile baseline HDL-C (>36.5 to ≤43.5 mg/dL)
# [22] = middle tertile baseline RLP-C (>28.09 to ≤34.30 mg/dL)
# [23] = middle tertile baseline TG (>190 to ≤250 mg/dL)
# [24] = not in the highest tertile baseline TG and lowest tertile baseline HDL-C
# [25] = primary prevention subgroup (CV risk category 2)
# [26] = secondary prevention subgroup (CV risk category 1)
# [27] = without atherogenic dyslipidemia
# [28] = without history of peripheral artery disease
structure (smiles),measurement,setting,value
"CC/C=C\C/C=C\C/C=C\C/C=C\C/C=C\CCCC(=O)OCC [AMR101, eicosapentaenoic acid ethyl ester]","Primary endpoint, patients with event (%)",[1],16.9%
same,"Time to primary endpoint, HR (95% CI) AMR101/Placebo",[1],0.789
same,"Primary endpoint, patients with event (%)",[2],18.0%
same,"Time to primary endpoint, HR (95% CI) AMR101/Placebo",[2],0.804
same,"Primary endpoint, patients with event (%)",PAD History - No,16.3%
same,"Time to primary endpoint, HR (95% CI) AMR101/Placebo",PAD History - No,0.744
same,"Primary endpoint, patients with event (%)",PAD History - Yes,26.6%
same,"Time to primary endpoint, HR (95% CI) AMR101/Placebo",PAD History - Yes,0.803
same,"Primary endpoint, patients with event (%)",[3],17.8%
same,"Time to primary endpoint, HR (95% CI) AMR101/Placebo",[3],0.715
same,"Primary endpoint, patients with event (%)",[4],17.1%
same,"Time to primary endpoint, HR (95% CI) AMR101/Placebo",[4],0.806
same,"Primary endpoint, patients with event (%)",[5],16.8%
same,"Time to primary endpoint, HR (95% CI) AMR101/Placebo",[5],0.750
same,"Primary endpoint, patients with event (%)",[6],17.3%
same,"Time to primary endpoint, HR (95% CI) AMR101/Placebo",[6],0.803
same,"Primary endpoint, patients with event (%)",[7],17.2%
same,"Time to primary endpoint, HR (95% CI) AMR101/Placebo",[7],0.709
same,"Primary endpoint event, patients",US patients,18.2%
same,"Primary endpoint, HR",US patients,0.687
same,"Primary endpoint event, patients",[8],17.2%
same,"Primary endpoint, HR",[8],0.709
same,"Primary endpoint event, patients",atherogenic dyslipidemia (baseline TG ≥200 mg/dL and HDL-C ≤35 mg/dL),18.1%
same,"Primary endpoint event, patients",baseline HbA1c <6.5%,16.5%
same,"Primary endpoint, HR",baseline HbA1c <6.5%,0.793
same,"Primary endpoint event, patients",baseline HbA1c ≥6.5%,18.1%
same,"Primary endpoint, HR",baseline HbA1c ≥6.5%,0.701
same,"Primary endpoint event, patients",[9],18.2%
same,"Primary endpoint, HR",[9],0.842
same,"Primary endpoint event, patients",[10],16.5%
same,"Primary endpoint, HR",[10],0.691
same,"Primary endpoint event, patients",baseline hsCRP >2 mg/L,19.2%
same,"Primary endpoint, HR",baseline hsCRP >2 mg/L,0.813
same,"Primary endpoint event, patients",baseline hsCRP ≤2 mg/L,15.0%
same,"Primary endpoint, HR",baseline hsCRP ≤2 mg/L,0.680
same,"Primary endpoint event, patients",[11],17.3%
same,"Primary endpoint, HR",[11],0.803
same,"Primary endpoint event, patients",[12],15.1%
same,"Primary endpoint, HR",[12],1.077
same,"Primary endpoint event, patients",[13],15.9%
same,"Primary endpoint, HR",[13],0.812
same,"Primary endpoint event, patients",[14],17.8%
same,"Primary endpoint, HR",[14],0.715
same,"Primary endpoint event, patients",[15],16.9%
same,"Primary endpoint, HR",[15],0.675
same,"Primary endpoint event, patients",[16],19.1%
same,"Primary endpoint, HR",[16],0.670
same,"Primary endpoint event, patients",[17],26.6%
same,"Primary endpoint, HR",[17],0.803
same,"Primary endpoint event, patients",[18],18.1%
same,"Primary endpoint, HR",[18],0.667
same,"Primary endpoint event, patients",[19],17.1%
same,"Primary endpoint, HR",[19],0.806
same,"Primary endpoint event, patients",[20],16.9%
same,"Primary endpoint, HR",[20],0.789
same,"Primary endpoint event, patients",[21],17.6%
same,"Primary endpoint, HR",[21],0.800
same,"Primary endpoint event, patients",[22],16.8%
same,"Primary endpoint, HR",[22],0.750
same,"Primary endpoint event, patients",[23],18.0%
same,"Primary endpoint, HR",[23],0.804
same,"Primary endpoint event, patients",non-US patients,16.7%
same,"Primary endpoint, HR",non-US patients,0.803
same,"Key secondary endpoint event, patients",non-white patients,10.3%
same,"Key secondary endpoint, HR",non-white patients,0.554
same,"Primary endpoint event, patients",[24],16.3%
same,"Primary endpoint, HR",[24],0.679
same,"Key secondary endpoint, point estimate of the HR",patients on statins of low intensity at baseline,1.200
same,"Primary endpoint event, patients",[25],12.2%
same,"Primary endpoint, HR",[25],0.876
same,"Primary endpoint event, patients",[26],19.3%
same,"Primary endpoint, HR",[26],0.726
same,"Key secondary endpoint event, patients",white patients,11.3%
same,"Key secondary endpoint, HR",white patients,0.758
same,"Primary endpoint event, patients",[27],17.0%
same,"Primary endpoint, HR",[27],0.791
same,"Primary endpoint event, patients",[28],16.3%
same,"Primary endpoint, HR",[28],0.744
same,"Key secondary endpoint event, patients",≥65 years subgroup,13.9%
same,"Key secondary endpoint, HR",≥65 years subgroup,0.824
same,"Primary endpoint event, patients",≥65 years subgroup,20.6%
same,"Primary endpoint, HR",≥65 years subgroup,0.873
